# Reference: patent US20200360465A1, “METHOD OF TREATING LOWER URINARY TRACT SYMPTOMS WITH FEXAPOTIDE TRIFLUTATE” (Nymox Corporation, priority 2019, published 2020)
# Marks after values point to notes of the source that are not given here. Where no end group is shown, it is not given here.
# Legend:
# [1] = test system: Patients with BPH and who optionally also had LUTS; assay: Clinical trial: inability to provide urine volume >125 mL (Qmax unable / Qmax failure) after intraprostatic injection; assay type: in vivo, human
# Protocol: (§1) Clinical trials were conducted on numerous individuals having BPH, some of whom also had LUTS. All protocols were done in accordance with applicable regulations, and carried out by physicians.
# Patients with BPH and who optionally also had LUTS were given an intraprostatic injection of either a) FT 2.5 mg in phosphate buffered saline pH 7.2 (“PBS”) or b) PBS alone, under double-blind conditions by a urologist in an office setting under ultrasound guidance. Patients were followed for 12 months to several years with regular physical examinations, laboratory tests, and evaluations of symptoms. Urinary peak flow (Qmax) was measured by flow meter readings using standard techniques, at baseline, and at 12 months in subjects who were able to urinate adequate volume of urine (>125 mL) to provide a valid test. Subjects who were unable to void >=125 mL despite drinking as much water as they wanted were classified as “Qmax unable.” The numbers of subjects who became Qmax unable was compared in different groups.
# [2] = test system: Patients with BPH and who optionally also had LUTS; assay: Clinical trial: deterioration/worsening in urinary peak flow rate (Qmax worsening) after intraprostatic injection; assay type: in vivo, human
# Protocol: as §1
# Patients with BPH and who optionally also had LUTS were given an intraprostatic injection of either a) FT 2.5 mg in phosphate buffered saline pH 7.2 (“PBS”) or b) PBS alone, under double-blind conditions by a urologist in an office setting under ultrasound guidance. Patients were followed for 12 months to several years with regular physical examinations, laboratory tests, and evaluations of symptoms. Urinary peak flow (Qmax) was measured by flow meter readings using standard techniques, at 3 months and at 12 months.
# [3] = test system: Patients with BPH and who optionally also had LUTS; assay: Clinical trial: nocturia frequency by patient questionnaires after intraprostatic injection; assay type: in vivo, human
# Source text: Improvements in obstructive and irritative symptoms can be measured in accordance with techniques known in the art. For example, uroflowmeters are known to differentiate urine weight change to provide a continuous plot of the flow rate vs. time that is smoothed by internal electronic filtering to permit precise (±5%) measurement of Qmax. Schafer W, et al. “Good urodynamic practices: Uroflowmetry, filling cystometry and pressure-flow studies,” Neurourol Urodynamics, Vol. 21, pp. 261-74 (2002). Nocturia can be measured in a variety of manners, most of which involve patients completing a questionnaire before and after treatment to establish a baseline, and then determine the difference (improvement, lack of improvement, worsening, etc.) from baseline after treatment. Exemplary questionnaires include evaluating the scores from the nocturia question included in the International Prostate Symptom Score (IPSS), assessing the number of nocturnal voids (Boyarsky symptom score), the Madsen-Iversen Symptom Score, and the ICSmale questionnaire. See, e.g., Chartier-Kastler, et al., “The Measurement of Nocturia and its Impact on Quality of Sleep and Quality of Life in LUTS/BPH,” Eur. Urol. Supp., Vol. 5, pp. 3-11 (2006). A preferred method of measuring nocturia is by determining the mean change from baseline of the nocturia question in the IPSS (question 7). Question 7 solicits from the patient how many times over the past month they had to get up to urinate from the time they went to bed until the time they got up—the score ranging from none (score 0) to 5 or more times (score 5).
# as §1
# Patients with BPH and who optionally also had LUTS were given an intraprostatic injection of either a FT2.5 in 10 mL phosphate buffered saline pH 7.2 (“PBS”) or PBS 10 mL alone, under double-blind conditions by a urologist in an office setting under ultrasound guidance. Patients were followed for 12 months with regular physical examinations, laboratory tests, and evaluations of symptoms. The mean frequency of nocturia in the prior month was recorded in patient questionnaires.
# [4] = test system: prostate glandular epithelial cells; assay: In vitro tissue culture genetic array: apoptosis pathway activation; assay type: cell-based
# Source text: FT is a new molecular entity which in vitro stimulates caspase pathways (activation of caspases 7, 8, and 10, caspase recruitment domains 6, 11, and 14, and DIABLO), tumor necrosis factor pathways (activation of TNF1, TNFSF6, TNFSF8, TNFSF9, CD70 ligands, and TNFRSF19L, TNFRSF25, TRAF2, TRAF3, TRAF4, TRAF6 receptors), and BCL pathways (activation of BIK, HRK, BCL2L10 and BCL3) in prostate glandular epithelial cells, based on tissue culture genetic array data. FT selectively causes loss of cell membrane integrity, mitochondrial metabolic arrest, depletion of RNA, DNA lysis and aggregation, and cell fragmentation and cell loss. The apoptotic process leads to typical ultrastructural progressive changes of membranous disruption and swelling, progressively deepening nuclear invaginations with eventual membranous bleb formations and cell death and fragmentation into apoptotic bodies. Histologically, typical apoptotic changes with positive immunohistochemical staining of markers for apoptosis are found throughout the injected areas for up to several weeks after treatment.
# [5] = about 3 months after single dose of FT ≥2.5 mg, vs control
substance,measurement,setting,value
Fexapotide Triflutate (IDQQVLSRIKLEIKRCL; also: trifluoroacetate salt) [FT],% of Qmax Unable at 12 months (% of patients with inability to provide urine volume >125 mL),"[1]; 12 months after single intraprostatic dose of 2.5 mg FT, placebo 5.9%",4.5%
same,"mean flow rate improvements, FT treated patients versus controls","[1]; Qmax at baseline and 12 months, FT 2.5 mg vs PBS",similar
same,percent decrease in patients unable to provide urine volume ≥125 ml compared to control,[1]; [5],≈ 10%
same,percentage of patients unable to provide a urine volume of ≥125 ml,"[1]; about 3 months after single dose of FT ≥2.5 mg, control 4.3%",3.9%
same,% of Qmax Worsening at 12 months,"[2]; 12 months after single intraprostatic dose of 2.5 mg FT, placebo 42%, p = 0.0239",35%
same,"flow rate mean improvements, FT treated group versus control group","[2]; Qmax at 3 months and 12 months, FT 2.5 mg vs PBS",similar
same,percent decrease in patients with deterioration/worsening in peak flow rate compared to control,[2]; [5],≈ 5.1%
same,percentage of patients who showed deterioration/worsening in peak flow rate,"[2]; about 3 months after single dose of FT ≥2.5 mg, control 37%",35.2%
same,improvement in percentage of patients with Nocturia frequency change >0 from baseline to 12 months compared to control,"[3]; 12 months after single dose of 2.5 mg FT, vs vehicle control",about 36%
same,"mean improvement in frequency of nocturia per night, FT treated subjects versus controls","[3]; 12 months follow-up, FT 2.5 mg vs PBS",similar
same,improvement in mean nocturia frequency points improvement from baseline versus control,"[3]; after 3 months, single dose of FT 2.5 mg, not significantly better than control",~8%
same,% of Patients With Nocturia Frequency Change >0 from Baseline to 12 Months,"[3]; single intraprostatic dose of 2.5 mg FT, placebo 19.19%, p = 0.0425 vs. Vehicle alone",14.15%*
same,"BCL pathways (activation of BIK, HRK, BCL2L10 and BCL3)",[4],stimulates
same,"caspase pathways (activation of caspases 7, 8, and 10, caspase recruitment domains 6, 11, and 14, and DIABLO)",[4],stimulates
same,"tumor necrosis factor pathways (activation of TNF1, TNFSF6, TNFSF8, TNFSF9, CD70 ligands, TNFRSF19L, TNFRSF25, TRAF2, TRAF3, TRAF4, TRAF6 receptors)",[4],stimulates
